Measured values from patent publication US4374841A, “Pyridoxine derivatives, and use in therapeutics” (S. A. Labaz N.V., priority 1980, dated 1983).
Like-named read-outs stand apart in the source and are kept apart here.

Legend:
[1] = tested on: α-receptors; assay: Antiadrenergic properties: anti-α effect (reduction of epinephrine-increased blood-pressure); type: in vivo, dog; conditions: intravenous
Experimental: (§1) The purpose of this test was to determine the capacity of the compounds under study to reduce epinephrine-increased blood-pressure (anti-α effect) and epinephrine-accelerated heart-rate (anti-β effect) in the dog previously anaesthetized with pentobarbital (30 mg/kg) and atropinized (1 mg/kg).
After that, the dose of epinephrine so determined was administered followed by a dose, by intravenous route, of the compound to be studied. The percentage of reduction of hypertension produced by the compound under study in comparison with the hypertension previously obtained (about 100 mm.Hg) was then registered.
(§2) In both cases, the results were expressed as follows: […]
(§3) + for a <50%-reduction of the increase in pressure or cardiac frequency
(§4) ++ for a ≥50-reduction of the increase in pressure or cardiac frequency
(§5) +++ for the almost complete supression of the increase in pressure or cardiac frequency.

[2] = tested on: anaesthetized dog; assay: Reserpine-like properties (cardiac frequency and contractility of the myocardium); type: in vivo; conditions: for change in vivo at 1 mg/kg: Canis lupus familiaris, intravenous, anaesthetized dog
Source text: C. Reserpine-like properties
the increase in cardiac frequency
the increase of (dP/dt) at its maximum, i.e. the increase of the maximum of the derivative of the left ventricular pressure in relation to time.
This derivative thus represented an index of contractility.

[3] = tested on: β-receptors; assay: Antiadrenergic properties: anti-β effect (reduction of epinephrine-accelerated heart-rate); type: in vivo; conditions: 10 mg/kg, intravenous, anaesthetized atropinized dog
Experimental: as §1
The percentage of reduction of the epinephrine-induced acceleration of heart-rate obtained by means of the compounds under study in comparison with the tachycardia previously measured (about 70 beats) was then registered.
as §2, §3, §4, §5

[4] = tested on: anaesthetized dog; assay: Hypotension in the anaesthetized dog; type: in vivo; conditions: 2 mg/kg, intravenous
Experimental: (a) Hypotension in the anaesthetized dog
The hypotensive effect was determined for at least one hour after the intravenous injection of a dose of the compound under study in the dog previously anaesthetized with pentobarbital (30 mg/kg) and atropinized (1 mg/kg).
Arterial pression was registered on a femoral artery.
The results were expressed as follows: […]
++ for a lasting reduction of about 30% in arterial pressure
+ for a short-lived reduction of about 20% in arterial pressure.

[5] = tested on: Okamoto rat; assay: Hypotension in the Okamoto rat; type: in vivo
Experimental: (b) Hypotension in the Okamoto rat
In this trial, the rats used belonged to a race specifically bred to produce animals having high blood-pressure. The arterial pressure of these rats was determined (about 180 mm.Hg) at the beginning of the test and a dose of the compound to be studied was then administered.
The decrease in arterial pressure was registered every hour for 6 hours after the administration of the compound in question.

[6] = tested on: mice; assay: Central depressant properties (passage of mice through a light ray); type: in vivo; conditions: Mus musculus, po, 0.5 h, intragastric, 30 minutes after administration, recorded over 15 minutes, dose with depressant action in 50% of the animals, read-out: AD50 (the source's name)
Experimental: D. Central depressant properties
Thirty minutes after the intragastric administration of a dose of the compound to be studied, batches of mice were placed in a container through which a ray of light was projected. By means of a photoelectric cell, a record was made of the number of animals passing through the light ray over a period of 15 minutes. The same test was performed with control animals.
The AD50 was then calculated i.e. the dose of the compound under study which provoked a depressant action in 50% of the animals.

[7] = Acute toxicity in rats; type: in vivo; conditions: rat, in vivo
Source text: (§6) Acute toxicity tests were also undertaken in rats and mice with compounds of the invention.

[8] = tested on: rats; assay: Acute toxicity in rats; type: in vivo; conditions: intragastric route, fumarate form
Source text: as §6

[9] = Acute toxicity in mice; conditions: mouse, in vivo
Source text: as §6

[10] = ip, intraperitoneal route, sesquioxalate form
[11] = po, intragastric route, sesquioxalate form

With `Cc1ccccc1OCCNCC(O)COc1c(C)ncc(CO)c1CO` (stereo not shown) [Compound A, 4,5-dihydroxymethyl-3-[2-hydroxy-3-(2-methyl-phenoxyethylamino)-propoxy]-2-methyl-pyridine] the Anti-α effect ([1]; 10 mg/kg, anaesthetized atropinized dog, epinephrine) was “+++”, the “α-antiadrenergic properties at a dose as low as” value ([1]; lowest active dose, dog, sesquioxalate) was 2 mg/kg and the change in vivo at 1 mg/kg ([2]; (dP/dt) maximum, read-out: increase in the contractility of the myocardium) was 10 to 30%. The change in vivo at 1 mg/kg ([2]; read-out: increase in cardiac frequency) was 10 to 30%, the “effects on cardiac frequency and contractility after reserpine” value ([2]; dog having previously received reserpine) was “suppressed” and the Anti-β effect [3] was “+ (for a <50%-reduction of the increase in pressure or cardiac frequency)”. The “Decrease in arterial pressure” value [4] was “++ (for a lasting reduction of about 30% in arterial pressure)”, the “maximum decrease (arterial pressure)” value ([5]; 25 mg/kg, oral route, acute treatment, initial about 180 mm.Hg) was 21 mm.Hg and the minimal effective dose ([5]; chronic treatment, involving one single administration, read-out: found to be active at a dose as low as) was 50 mg/kg. For the same compound, the “activity in acute treatment (ranking)” value ([5]; oral route, acute treatment) was “the most active in acute treatment”, the minimal effective dose ([5]; oral route, acute treatment, read-out: provoked hypotension at a dose as low as) was 25 mg/kg and the ED50 [6] was 50 mg/kg.

Work on `Cc1ccccc1OCCNCC(O)COc1c(C)ncc(CO)c1CO` (stereo not shown) [drawing 41, 4,5-Dihydroxymethyl-3-[2-hydroxy-3-(2-methyl-phenoxyethylamino)-propoxy]-2-methyl-pyridine] yielded an LD50 [7, 10] of 320 mg/kg, an LD50 ([7]; iv, fumarate form) of 200 mg/kg and an LD50 ([7]; iv, sesquioxalate form) of 170 mg/kg. For the same compound, the LD50 [7, 11] was 2200 mg/kg, the LD0 [8] was > 2500 mg/kg and the LD50 ([9]; intravenous route, sesquioxalate form) was 118 mg/kg. The LD50 [9, 10] was 290 mg/kg and the LD50 [9, 11] was 700 mg/kg.

With `COc1ccccc1OCCNCC(O)COc1c(C)ncc(CO)c1CO` (stereo not shown) [drawing 42] the LD50 ([7]; iv, intravenous route (salt form not stated)) was 245 mg/kg and the LD50 ([9]; po, intragastric route (salt form not stated)) was > 5000 mg/kg.
